Values of other authors as cited in patent US20080038219A1, “Novel Composition for a Topical Skin Treatment Base and Medicated Applications Thereof” (CALGENEX CORPORATION, priority 2006, published 2008).

Test system: mild-to-moderate acne
Settings: versus tretinoin 0.05%, benzoyl peroxide 5%, topical erythromycin 2%

Q: Which “efficacy in treatment of mild-to-moderate acne” value does the source give for O=C(O)CCCCCCCC(=O)O [azelaic acid] here?
A: Its value is “efficacy comparable”.
